Experimental data from ChEMBL document CHEMBL5137033, “Development of sulfonamide-based NLRP3 inhibitors: Further modifications and optimization through structure-activity relationship studies” (Eur J Med Chem, 2022).
pIC50, pKd: −log10 of the molar value.

How the values were obtained:
[1] = target: T1, Interferon-inducible protein AIM2 (Mus musculus) (UniProt Q91VJ1); assay: Inhibition of AIM2 inflammasome in LPS-primed mouse J774.A1 cells assessed as IL-1beta secretion at 10 uM preincubated for 1 hr followed by poly(dA:dT) addition and measured after 4 hrs by ELISA relative to control; assay type: cell-based; set-up: scale not given: the % may be the effect or the level left; settings: time 5.0 hrs
T1 sequence (whole entry): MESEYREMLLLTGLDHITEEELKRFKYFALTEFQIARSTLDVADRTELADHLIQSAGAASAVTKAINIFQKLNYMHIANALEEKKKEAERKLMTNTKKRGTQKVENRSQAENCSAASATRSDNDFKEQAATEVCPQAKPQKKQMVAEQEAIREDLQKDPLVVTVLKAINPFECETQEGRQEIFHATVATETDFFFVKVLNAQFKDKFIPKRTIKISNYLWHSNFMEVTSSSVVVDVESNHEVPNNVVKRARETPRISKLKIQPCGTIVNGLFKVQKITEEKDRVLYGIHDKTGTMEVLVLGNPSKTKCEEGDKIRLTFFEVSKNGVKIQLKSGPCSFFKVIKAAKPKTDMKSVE

[2] = tested on: HEK293; assay: (§1) Cytotoxicity against HEK293 cells assessed as cell viability at 10 uM incubated for 4 hrs by MTT assay relative to control; assay type: toxicity, cell-based; settings: human, hek293, 4 h, 10 µM
[3] = target: NLR family CARD domain-containing protein 4 (Mus musculus) (UniProt Q3UP24); assay: Inhibition of NLRC4 inflammasome in LPS-primed mouse J774.A1 cells assessed as IL-1beta secretion at 10 uM preincubated for 1 hr followed by flagellin addition and measured after 6 hrs by ELISA relative to control; assay type: cell-based; set-up: scale not given: the % may be the effect or the level left; settings: time 7.0 hrs
[4] = tested on: J774.A1; assay: (§2) Cytotoxicity against mouse J774.A1 cells assessed as cell viability at 10 uM incubated for 4 hrs by MTT assay relative to control; assay type: toxicity, cell-based; settings: j774.a1, 4 h, 10 µM
[5] = target: T2, NACHT, LRR and PYD domains-containing protein 3 (Mus musculus, UniProt Q8R4B8); assay: Inhibition of NLRP3 inflammasome in LPS-primed mouse J774.A1 cells assessed as reduction in IL-1beta secretion preincubated for 30 mins followed by ATP addition and measured after 30 mins by ELISA; assay type: cell-based
[6] = target: NLR family CARD domain-containing protein 4 (Mus musculus, UniProt Q3UP24); assay: Inhibition of NLRC4 inflammasome in LPS-primed mouse J774.A1 cells assessed as reduction in IL-1beta secretion preincubated for 1 hr followed by flagellin addition and measured after 6 hrs by ELISA; assay type: cell-based
[7] = target: T3, Interferon-inducible protein AIM2 (Mus musculus, UniProt Q91VJ1); assay: Inhibition of AIM2 inflammasome in LPS-primed mouse J774.A1 cells assessed as reduction in IL-1beta secretion preincubated for 1 hr followed by poly(dA:dT) addition and measured after 4 hrs by ELISA; assay type: cell-based
T3 sequence (Q91VJ1 whole entry): T1 sequence (whole entry)

[8] = as §1; assay type: toxicity, cell-based; settings: human, HEK293 cells, read-out: Activity
[9] = as §2; assay type: toxicity, cell-based; settings: J774.A1 cells, read-out: Activity
[10] = target: NACHT, LRR and PYD domains-containing protein 3 (Homo sapiens, UniProt Q96P20); assay: Binding affinity to human recombinant full length NLRP3 transfected in HEK293F cells assessed as dissociation constant incubated for 40 mins by microscale thermophoresis analysis
[11] = target: T2, NACHT, LRR and PYD domains-containing protein 3; assay: Inhibition of NLRP3 inflammasome in LPS-primed mouse BMDM cells assessed as reduction in IL-1beta secretion preincubated for 30 mins followed by ATP addition and measured after 30 mins by ELISA; assay type: cell-based
[12] = Inhibition of IL-1beta production in C57BL/6 mouse assessed as reduction in IL-1beta level in serum at 10 mg/kg, ip pretreated with compound followed by LPS addition and measured after 2.5 hrs by ELISA; assay type: functional

T2 sequence (Q8R4B8 whole entry, the tested form may be a part): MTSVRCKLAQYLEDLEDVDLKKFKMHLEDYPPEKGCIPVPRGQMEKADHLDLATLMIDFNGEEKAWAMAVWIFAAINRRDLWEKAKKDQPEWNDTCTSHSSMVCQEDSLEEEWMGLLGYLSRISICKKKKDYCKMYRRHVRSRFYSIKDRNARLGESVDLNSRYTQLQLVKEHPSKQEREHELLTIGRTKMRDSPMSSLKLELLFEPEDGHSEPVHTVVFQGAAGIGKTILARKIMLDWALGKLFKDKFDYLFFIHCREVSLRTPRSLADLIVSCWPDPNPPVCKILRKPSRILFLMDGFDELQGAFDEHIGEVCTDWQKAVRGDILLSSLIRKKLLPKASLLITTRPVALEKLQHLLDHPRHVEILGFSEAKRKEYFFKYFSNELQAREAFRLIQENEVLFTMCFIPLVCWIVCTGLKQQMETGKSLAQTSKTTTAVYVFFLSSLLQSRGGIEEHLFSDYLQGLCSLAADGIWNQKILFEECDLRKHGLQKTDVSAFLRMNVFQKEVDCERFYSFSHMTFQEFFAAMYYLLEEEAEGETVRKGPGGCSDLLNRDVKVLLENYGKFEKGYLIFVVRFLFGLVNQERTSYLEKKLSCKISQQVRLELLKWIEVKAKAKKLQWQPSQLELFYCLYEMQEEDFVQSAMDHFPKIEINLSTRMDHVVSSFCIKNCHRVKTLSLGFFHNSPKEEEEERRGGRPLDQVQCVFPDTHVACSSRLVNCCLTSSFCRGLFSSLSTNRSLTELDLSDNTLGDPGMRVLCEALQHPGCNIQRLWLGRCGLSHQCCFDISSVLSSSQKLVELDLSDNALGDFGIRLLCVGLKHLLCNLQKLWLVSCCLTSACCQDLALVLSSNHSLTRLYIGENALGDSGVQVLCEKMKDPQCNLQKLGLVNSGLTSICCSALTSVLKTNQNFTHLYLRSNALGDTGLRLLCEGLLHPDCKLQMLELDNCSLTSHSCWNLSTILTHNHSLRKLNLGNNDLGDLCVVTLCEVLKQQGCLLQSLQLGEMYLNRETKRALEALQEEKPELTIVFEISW
NLR family CARD domain-containing protein 4 (Mus musculus), sequence (Q3UP24 whole entry, the tested form may be a part): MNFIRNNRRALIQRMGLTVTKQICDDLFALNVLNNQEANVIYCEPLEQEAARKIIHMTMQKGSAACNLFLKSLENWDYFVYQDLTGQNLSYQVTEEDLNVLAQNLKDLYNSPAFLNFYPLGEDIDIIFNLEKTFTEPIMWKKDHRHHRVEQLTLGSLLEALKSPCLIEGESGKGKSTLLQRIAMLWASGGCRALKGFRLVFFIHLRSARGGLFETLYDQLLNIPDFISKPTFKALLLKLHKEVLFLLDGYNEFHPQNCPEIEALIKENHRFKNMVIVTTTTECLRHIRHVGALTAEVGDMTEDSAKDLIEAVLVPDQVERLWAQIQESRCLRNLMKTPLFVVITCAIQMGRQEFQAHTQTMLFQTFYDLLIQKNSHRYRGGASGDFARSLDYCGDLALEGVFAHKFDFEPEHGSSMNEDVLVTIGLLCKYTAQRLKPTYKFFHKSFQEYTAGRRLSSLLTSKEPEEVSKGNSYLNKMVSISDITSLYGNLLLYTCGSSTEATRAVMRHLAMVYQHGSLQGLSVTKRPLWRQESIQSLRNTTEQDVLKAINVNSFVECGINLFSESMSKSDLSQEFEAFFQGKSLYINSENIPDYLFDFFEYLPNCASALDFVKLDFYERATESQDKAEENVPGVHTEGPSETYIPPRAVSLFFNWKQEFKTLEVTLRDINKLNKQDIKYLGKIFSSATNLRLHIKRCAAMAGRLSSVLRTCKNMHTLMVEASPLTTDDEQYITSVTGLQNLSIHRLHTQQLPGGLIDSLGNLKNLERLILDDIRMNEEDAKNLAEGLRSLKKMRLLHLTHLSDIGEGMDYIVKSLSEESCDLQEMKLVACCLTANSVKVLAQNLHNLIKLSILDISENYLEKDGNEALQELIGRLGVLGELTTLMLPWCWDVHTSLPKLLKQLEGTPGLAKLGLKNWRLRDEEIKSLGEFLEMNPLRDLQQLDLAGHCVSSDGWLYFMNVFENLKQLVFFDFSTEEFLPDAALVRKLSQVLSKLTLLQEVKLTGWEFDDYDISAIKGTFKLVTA
NLR family CARD domain-containing protein 4, sequence (Q3UP24 whole entry, the tested form may be a part): as above
NACHT, LRR and PYD domains-containing protein 3 (Homo sapiens, UniProt Q96P20), sequence (Q96P20 whole entry, the tested form may be a part): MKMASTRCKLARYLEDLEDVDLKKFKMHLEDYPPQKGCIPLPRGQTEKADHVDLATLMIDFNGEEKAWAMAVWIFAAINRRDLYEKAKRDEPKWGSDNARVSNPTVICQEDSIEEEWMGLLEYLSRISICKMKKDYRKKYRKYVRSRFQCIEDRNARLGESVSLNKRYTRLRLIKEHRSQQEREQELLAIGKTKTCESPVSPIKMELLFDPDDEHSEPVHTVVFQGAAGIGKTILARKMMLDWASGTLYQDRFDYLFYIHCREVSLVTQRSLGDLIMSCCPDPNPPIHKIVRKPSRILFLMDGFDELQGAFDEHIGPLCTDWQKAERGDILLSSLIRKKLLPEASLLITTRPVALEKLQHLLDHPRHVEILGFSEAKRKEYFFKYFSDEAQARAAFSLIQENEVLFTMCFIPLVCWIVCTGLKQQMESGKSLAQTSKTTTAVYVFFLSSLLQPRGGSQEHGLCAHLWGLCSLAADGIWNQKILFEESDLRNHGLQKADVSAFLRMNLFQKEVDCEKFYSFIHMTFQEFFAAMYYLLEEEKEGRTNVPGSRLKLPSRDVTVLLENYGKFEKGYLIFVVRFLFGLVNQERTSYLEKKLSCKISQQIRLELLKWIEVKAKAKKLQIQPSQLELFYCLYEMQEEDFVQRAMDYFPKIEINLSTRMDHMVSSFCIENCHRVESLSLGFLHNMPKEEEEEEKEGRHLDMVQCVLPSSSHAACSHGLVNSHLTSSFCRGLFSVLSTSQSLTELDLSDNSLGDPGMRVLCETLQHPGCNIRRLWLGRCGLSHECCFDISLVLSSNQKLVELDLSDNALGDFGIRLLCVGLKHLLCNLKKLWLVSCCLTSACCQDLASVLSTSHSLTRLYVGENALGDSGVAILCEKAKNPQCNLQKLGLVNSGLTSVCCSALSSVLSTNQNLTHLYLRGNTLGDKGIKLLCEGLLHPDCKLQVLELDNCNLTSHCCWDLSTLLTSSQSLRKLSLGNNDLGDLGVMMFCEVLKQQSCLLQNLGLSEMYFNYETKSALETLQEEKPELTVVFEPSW

Compound | Activity [1] [%] | Activity [2] [%] | Activity [3] [%] | Activity [4] [%] | pIC50 [5] | pIC50 [6] | pIC50 [7] | viability at 4 h, 10 µM [8] [%] | viability at 4 h, 10 µM [9] [%] | pKd [10] | pIC50 [11] | inhibition in vivo at 10 mg/kg [12] [%]
CCCOc1ccc(Cl)cc1CN(CCc1ccc(S(=O)(=O)N2CCC2)cc1)C(=O)Cc1ccc(F)cc1 | 102 | 103.6 | 109 | 106.1 | 5.87 |  |  |  |  |  |  | 
C#CCNS(=O)(=O)c1ccc(CCN(Cc2ccco2)C(=O)Cc2ccsc2)cc1 | 89.4 | 96.4 | 76.2 | 112.9 | 5.60 |  |  |  |  |  |  | 
C#CCNS(=O)(=O)c1ccc(CCN(Cc2ccsc2)Cc2cc(Cl)ccc2OCCC)cc1 | 49.8 | 82 | 28.9 | 90.5 | 6.12 |  |  |  |  |  |  | 
C#CCS(=O)(=O)c1ccc(CCN(Cc2cc(Cl)ccc2OCCC)C(=O)Cc2ccsc2)cc1 | 0 | 88.7 | 0 | 81.1 | 6.72 |  |  |  |  |  |  | 
C#CCNS(=O)(=O)c1ccc(CCN(Cc2cccc3c2OCO3)C(=O)Cc2ccc(F)cc2)cc1 | 59.1 | 96.2 | 102 | 96.8 | 6.72 |  |  |  |  |  |  | 
C#CCNS(=O)(=O)c1ccc(CCN(Cc2cc(Cl)ccc2OCCC)C(=O)c2ccc(B3OC(C)(C)C(C)(C)O3)cc2)cc1 |  | 95.2 |  | 88.1 | 5.60 |  |  |  |  |  |  | 
CCCOc1ccc(Cl)cc1CN(CCc1ccc(S(=O)(=O)N2CCC2)cc1)C(=O)c1csc2ccccc12 |  | 100.7 |  | 107 | 5.12 |  |  |  |  |  |  | 
C#CCNS(=O)(=O)c1ccc(CCN(Cc2cc(Cl)ccc2OCCC)C(=O)Cc2csc3ccccc23)cc1 | 96.7 | 99.8 | 85.6 | 105.4 | 6.68 | < 5.00 | < 5.00 |  |  |  |  | 
C#CCNS(=O)(=O)c1ccc(CCN(Cc2cc(Cl)ccc2C(F)(F)F)C(=O)Cc2ccsc2)cc1 |  | 92.1 |  | 93.1 | 6.34 |  |  |  |  |  |  | 
C#CCNS(=O)(=O)c1ccc(CCN(Cc2cc(Cl)ccc2OCC#C)C(=O)Cc2ccsc2)cc1 |  | 94.8 |  | 95.5 | 6.68 |  |  |  |  |  |  | 
C#CCNS(=O)(=O)c1ccc(CCN(Cc2cccc3c2OCO3)C(=O)c2ccc(F)cc2)cc1 |  | 93.4 |  | 99.5 | 6.03 |  |  |  |  |  |  | 
CC(C)(C)c1coc(S(=O)(=O)NC(=O)Nc2c3c(cc4c2CCC4)CCC3)c1 |  |  |  |  |  |  |  | 95.2 | 94.9 |  |  | 
C#CCNS(=O)(=O)c1ccc(CCN(Cc2cc(Cl)ccc2OCCC)C(=O)Cc2ccc(F)cc2)cc1 |  | 90.6 |  | 102.2 | 6.55 |  |  |  |  |  |  | 
C#CCNS(=O)(=O)c1ccc(CCN(Cc2cc(Cl)ccc2OCCC)C(=O)c2ccc([N+](=O)[O-])cc2)cc1 |  | 91.6 |  | 101.3 | 6.12 |  |  |  |  |  |  | 
C#CCNS(=O)(=O)c1ccc(CCN(Cc2cc(Cl)ccc2OCCC)C(=O)c2ccc(O)cc2)cc1 |  | 92.1 |  | 83.5 | 6.21 |  |  |  |  |  |  | 
C#CCNS(=O)(=O)c1ccc(CCN(Cc2ccccc2OCCC)C(=O)Cc2ccsc2)cc1 | 61.4 | 98.9 | 70.1 | 100.2 | 6.10 |  |  |  |  |  |  | 
C#CCNS(=O)(=O)c1ccc(CCN(Cc2cc(Cl)ccc2N)C(=O)Cc2ccsc2)cc1 |  | 92.9 |  | 93.5 | 5.95 |  |  |  |  |  |  | 
C#CCNS(=O)(=O)c1ccc(CCN(Cc2cc(Cl)ccc2OCCC)C(=O)c2ccc(F)cc2)cc1 | 67.6 | 91.6 | 101 | 96.3 | 6.92 | < 5.00 | < 5.00 |  |  | 7.08 | 6.04 | 75
C#CCNS(=O)(=O)c1ccc(CCN(Cc2cc(Cl)ccc2OCCC)C(=O)c2csc3c2CCCC3)cc1 |  | 95.9 |  | 93.7 | 6.29 |  |  |  |  |  |  | 
C#CCNS(=O)(=O)c1ccc(CCN(Cc2cc(Cl)ccc2OCCC)C(=O)c2csc3ccccc23)cc1 | 79.7 | 92.6 | 74.7 | 108.1 | 6.89 |  |  |  |  |  |  | 
C#CCNS(=O)(=O)c1ccc(CCN(Cc2cc(Cl)ccc2OCCC)C(=O)CCCc2ccsc2)cc1 |  | 89.1 |  | 97.9 | 5.93 |  |  |  |  |  |  | 
C#CCNS(=O)(=O)c1ccc(CCN(Cc2cc(Cl)ccc2O)C(=O)Cc2ccsc2)cc1 | 47.3 | 97.6 | 8 | 92 | 6.17 |  |  |  |  |  |  | 
CCCOc1ccc(Cl)cc1CN(CCc1ccc(S(=O)(=O)N2CCOCC2)cc1)C(=O)Cc1ccsc1 |  | 88.3 |  | 103.4 | 6.33 |  |  |  |  |  |  | 
CCCOc1ccc(Cl)cc1CN(CCc1ccc(S(=O)(=O)NCC(C)(C)C)cc1)C(=O)Cc1ccsc1 | 52.3 |  | 89.3 | 105.1 | 6.18 |  |  |  |  |  |  | 
C#CCS(=O)(=O)c1ccc(CCN(Cc2cc(Cl)ccc2OCCC)C(=O)c2csc3ccccc23)cc1 | 0 | 95.6 | 29.1 | 85.7 | 6.36 |  |  |  |  |  |  | 
C#CCN(C)S(=O)(=O)c1ccc(CCN(Cc2cc(Cl)ccc2OCCC)C(=O)Cc2ccsc2)cc1 | 108 | 94.5 | 80.8 | 105.8 | 6.49 | < 5.00 | < 5.00 |  |  |  |  | 
C#CCNS(=O)(=O)c1ccc(CCN(Cc2cccc3c2OCO3)C(=O)Cc2ccsc2)cc1 | 68.8 | 100.7 | 66.9 | 100 | 6.47 |  |  |  |  |  |  | 
C#CCNS(=O)(=O)c1ccc(CCN(Cc2cc(Cl)ccc2[N+](=O)[O-])C(=O)Cc2ccsc2)cc1 | 82.7 | 96.2 | 78.9 | 98.7 | 6.52 |  |  |  |  |  |  | 
C#CCNS(=O)(=O)c1ccc(CCN(Cc2cc(Cl)ccc2OCCC)C(=O)Cc2ccsc2)cc1 |  | 99 |  | 106 |  |  |  |  |  |  |  | 
